Tests used:
[1] = test system: sephadex-induced eosinophilia in the lung; experiment: Sephadex-induced lung eosinophilia in rats (EPO assay); format: in vivo; conditions: rat; for dose capable of inhibiting sephadex-induced eosinophilia in the lung: 60 minutes prior to challenge; for maximum inhibition of sephadex-induced eosinophilia: maximum over doses and routes tested
[2] = test system: ovalbumin-induced eosinophilia in the lung; experiment: Ovalbumin-induced lung eosinophilia in the guinea pig (EPO assay); format: in vivo; conditions: for maximum inhibition of ovalbumin-induced eosinophilia: maximum over doses and routes tested
[3] = test system: antigen induced IL-5 production; experiment: Antigen induced IL-5 production in vivo (serum, OVA-challenged sensitized mice); design: species or system mouse; conditions: for −24 hr IL-5: 24 hrs before OVA challenge; for −24 hr IL-5 / 0 hr IL-5: serum 7 hrs after OVA; for 0 hr IL-5: same time as OVA challenge
Protocol: CFW male mice were sensitized with OVA as described above. 14 days after the last sensitization animals were challenged with 100 μg OVA sc. […] Serum was collected 7 hrs after OVA and analyzed for IL-5 and IFN-γ concentrations. Results are expressed as the mean cytokine concentration ±SEM.

[4] = test system: antigen-induced eosinophilia in the lung; experiment: Antigen-induced lung eosinophilia after aerosol OVA challenge (EPO in lung); format: in vivo, mouse; conditions: 1 mg/kg, 15 minutes prior to antigen challenge, mice
Protocol: Concentrations of IL-4 were reduced in the BAL of these mice by 43% when compared to animals receiving antigen alone. […] Fourteen days after boosting animals were dosed by nebulization for 30 minutes using a 1% OVA solution. This was repeated on days 17 and 20. Twenty-four hours after the final nebulized dose animals were sacrificed and bronchoalveolar lavage (BAL) was performed using 1.0 ml of PBS containing 1% fetal bovine serum. BAL was stored at −70° C. before analyzed. Lungs were then removed and placed in 0.5% cetrimide, 0.05 M KH2PO4 for homogenization of 4×30 seconds with 30 second cooling intervals between on ice. Centrifugation was then done at 1300 rpm (400×g) for 30 minutes at 4C. Pellet was collected and resuspended in 4 ml 0.5% cetrimide, 0.05 M KH2PO4 buffer. Samples were then frozen until sonication and the EPO assessment. This was followed by sonication for 3×15 seconds with 30 second intervals on ice. […] To start the reaction, 1 ul of 30% hydrogen peroxide was added to the cuvette. The optical density reading was measured spectrophotometrically over a 4 minute time interval at 490 nm in a Beckman Du-64 spectrophotometer.

[5] = test system: IL-5 production in spleen cells from OVA-sensitized CFW mice; experiment: Inhibition of mouse spleen cell production of IL-5 (OVA-stimulated cultures, ELISA); format: cell-based; conditions: for IL-5 Concentration: 96 hr
IL-4 = experiment: Antigen-induced IL-4 in BAL after aerosol OVA challenge (ELISA); format: in vivo, mouse; conditions: 1 mg/kg, 15 minutes prior to antigen challenge, mice
Protocol: (§1) Concentrations of IL-4 were reduced in the BAL of these mice by 43% when compared to animals receiving antigen alone. […] Fourteen days after boosting animals were dosed by nebulization for 30 minutes using a 1% OVA solution. This was repeated on days 17 and 20. Twenty-four hours after the final nebulized dose animals were sacrificed and bronchoalveolar lavage (BAL) was performed using 1.0 ml of PBS containing 1% fetal bovine serum. BAL was stored at −70° C. before analyzed. Lungs were then removed and placed in 0.5% cetrimide, 0.05 M KH2PO4 for homogenization of 4×30 seconds with 30 second cooling intervals between on ice. Centrifugation was then done at 1300 rpm (400×g) for 30 minutes at 4C. Pellet was collected and resuspended in 4 ml 0.5% cetrimide, 0.05 M KH2PO4 buffer. Samples were then frozen until sonication and the EPO assessment. This was followed by sonication for 3×15 seconds with 30 second intervals on ice. BAL were analyzed by ELISA (Endogen) for IL-5 and IL-4 concentrations with data being presented as the average from 11 animals ±SEM. […] IL-5 concentration is in pg/ml.

IL-5 = experiment: Antigen-induced IL-5 in BAL after aerosol OVA challenge (ELISA); format: in vivo, mouse; conditions: 1 mg/kg, 15 minutes prior to antigen challenge, mice
Protocol: as §1

[6] = intratracheal instillation, 0.03 mg/kg
[7] = intratracheal instillation, 0.1 mg/kg
[8] = intratracheal instillation, 0.3 mg/kg
[9] = intratracheal instillation, 0.7 mg/kg
[10] = oral administration, 30.0 mg/kg
[11] = aerosol inhalation, 0.003 mg/kg
[12] = intraperitoneal administration, 0.003 mg/kg
[13] = intraperitoneal administration, 0.01 mg/kg
[14] = intraperitoneal administration, 0.03 mg/kg
[15] = intraperitoneal administration, 3.0 mg/kg
[16] = oral administration, 0.001 mg/kg
[17] = oral administration, 0.01 mg/kg

Cc1nc2c(N)nc3ccccc3c2n1CC(C)(C)O [Cmpd 1, 4-amino-α,α,-2-trimethyl-1H-imidazo[4,5-c]quinoline-1-ethanol]
% Inhibition [1, 6]: 0%
EPO Concentration in the Lung (χ ± SE) [1, 6]: 0.7107 ± 0.129
% Inhibition [1, 7]: 9%
EPO Concentration in the Lung (χ ± SE) [1, 7]: 0.5030 ± 0.089
% Inhibition [1, 8]: 44%
EPO Concentration in the Lung (χ ± SE) [1, 8]: 0.3440 ± 0.201
% Inhibition [1, 9]: 77%
EPO Concentration in the Lung (χ ± SE) [1, 9]: 0.1967 ± 0.080
dose capable of inhibiting sephadex-induced eosinophilia in the lung ([1]; intratracheal instillation): ≥ 0.7 mg/kg
maximum inhibition of sephadex-induced eosinophilia [1]: 95%
% Inhibition ([1]; oral administration, 0.1 mg/kg): 0%
EPO Concentration in the Lung (χ ± SE) ([1]; oral administration, 0.1 mg/kg): 0.4240 ± 0.138
% Inhibition ([1]; oral administration, 0.7 mg/kg): 64%
EPO Concentration in the Lung (χ ± SE) ([1]; oral administration, 0.7 mg/kg): 0.1497 ± 0.030
% Inhibition ([1]; oral administration, 1.0 mg/kg): 87%
EPO Concentration in the Lung (χ ± SE) ([1]; oral administration, 1.0 mg/kg): 0.0780 ± 0.039
% Inhibition ([1]; oral administration, 5.0 mg/kg): 87%
EPO Concentration in the Lung (χ ± SE) ([1]; oral administration, 5.0 mg/kg): 0.0790 ± 0.030
% Inhibition [1, 10]: 95%
EPO Concentration in the Lung (χ ± SE) [1, 10]: 0.0550 ± 0.013
dose capable of inhibiting sephadex-induced eosinophilia in the lung ([1]; oral administration): ≥ 0.7 mg/kg
% Inhibition [2, 11]: 13%
EPO Concentration in the Lung (χ ± SE) [2, 11]: 0.2620 ± 0.116
% Inhibition ([2]; aerosol inhalation, 0.01 mg/kg): 44%
EPO Concentration in the Lung (χ ± SE) ([2]; aerosol inhalation, 0.01 mg/kg): 0.1806 ± 0.035
dose capable of inhibiting ovalbumin-induced eosinophilia in the lung ([2]; aerosol inhalation, 15 minutes prior to challenge): 0.01 mg/kg
% Inhibition [2, 12]: 28%
EPO Concentration in the Lung (χ ± SE) [2, 12]: 0.2435 ± 0.0515
% Inhibition [2, 13]: 54%
EPO Concentration in the Lung (χ ± SE) [2, 13]: 0.1690 ± 0.053
% Inhibition [2, 14]: 54%
EPO Concentration in the Lung (χ ± SE) [2, 14]: 0.1693 ± 0.060
% Inhibition [2, 15]: 92%
EPO Concentration in the Lung (χ ± SE) [2, 15]: 0.0580 ± 0.018
dose capable of inhibiting ovalbumin-induced eosinophilia in the lung ([2]; intraperitoneal administration, 15 minutes prior to challenge): 0.01 mg/kg
maximum inhibition of ovalbumin-induced eosinophilia [2]: 92%

CCOCc1nc2c(N)nc3ccccc3c2n1CC(C)(C)O [Cmpd 2, 4-amino-2-ethoxymethyl-α,α-dimethyl-1H-imidazo[4,5-c]quinoline-1-ethanol]
maximum inhibition of sephadex-induced eosinophilia [1]: 87%
% Inhibition [1, 16]: 0%
EPO Concentration in the Lung (χ ± SE) [1, 16]: 0.6775 ± 0.140
% Inhibition [1, 17]: 32%
EPO Concentration in the Lung (χ ± SE) [1, 17]: 0.4908 ± 0.070
% Inhibition ([1]; oral administration, 0.1 mg/kg): 84%
EPO Concentration in the Lung (χ ± SE) ([1]; oral administration, 0.1 mg/kg): 0.2000 ± 0.060
% Inhibition ([1]; oral administration, 1.0 mg/kg): 87%
EPO Concentration in the Lung (χ ± SE) ([1]; oral administration, 1.0 mg/kg): 0.1824 ± 0.060
dose capable of inhibiting sephadex-induced eosinophilia in the lung ([1]; oral administration): ≥ 0.01 mg/kg
maximum inhibition of ovalbumin-induced eosinophilia [2]: 96%
% Inhibition [2, 16]: 19%
EPO Concentration in the Lung (χ ± SE) [2, 16]: 0.1862 ± 0.030
% Inhibition [2, 17]: 49%
EPO Concentration in the Lung (χ ± SE) [2, 17]: 0.1181 ± 0.020
% Inhibition ([2]; oral administration, 0.1 mg/kg): 95%
EPO Concentration in the Lung (χ ± SE) ([2]; oral administration, 0.1 mg/kg): 0.0118 ± 0.005
% Inhibition ([2]; oral administration, 1.0 mg/kg): 96%
EPO Concentration in the Lung (χ ± SE) ([2]; oral administration, 1.0 mg/kg): 0.0084 ± 0.005
dose capable of inhibiting ovalbumin-induced eosinophilia in the lung ([2]; oral administration, 60 minutes prior to challenge): 0.01 mg/kg
inhibition of IL-5 production ([3]; doses as low as 0.01 mg/kg po): at least 65%
−24 hr IL-5 ([3]; free-base po 0.01 mg/kg): 78 pg/mL
0 hr IL-5 ([3]; free-base po 0.01 mg/kg): 96 pg/mL
−24 hr IL-5 ([3]; free-base po 0.1 mg/kg): 49 pg/mL
0 hr IL-5 ([3]; free-base po 0.1 mg/kg): 62 pg/mL
−24 hr IL-5 ([3]; free-base po 1.0 mg/kg): 38 pg/mL
0 hr IL-5 ([3]; free-base po 1.0 mg/kg): 40 pg/mL
−24 hr IL-5 ([3]; free-base po 10.0 mg/kg): 8 pg/mL
0 hr IL-5 ([3]; free-base po 10.0 mg/kg): 29 pg/mL
EPO Concentration in Lung [4]: 352 ± 30 ABS
inhibition of antigen-induced eosinophilia in the lung (value in parentheses) [4]: 78%
IL-5 Concentration ([5]; OVA 100 μg/ml + IRM Compound 0.01 μg/ml, mean ±SEM): 125 ± 46 pg/mL
IL-5 Concentration ([5]; OVA 100 μg/ml + IRM Compound 0.1 μg/ml, mean ±SEM): 25 ± 8 pg/mL
IL-5 Concentration ([5]; OVA 100 μg/ml + IRM Compound 1 μg/ml, mean ±SEM): 22 ± 3 pg/mL
IL-5 Concentration ([5]; OVA 100 μg/ml + IRM Compound 10 μg/ml, mean of triplicate cultures ±SEM): 12 ± 2 pg/mL
inhibition of IL-5 production ([5]; concentrations as low as 0.01 μg/ml): greater than 60%
inhibition of IL-5 production ([5]; higher concentrations (above 0.01 μg/ml)): 100%
IL-4 Concentration in BAL (IL-4): 53 ± 8 pg/mL
reduction of BAL IL-4 concentration (value in parentheses) (IL-4): 43%
reduction of BAL IL-4 concentration (value in parentheses) (IL-4; listed as IRM Compound): 42%
IL-5 Concentration in BAL (IL-5): 13 ± 2 pg/mL
reduction of BAL IL-5 concentration (value in parentheses) (IL-5): 78%

Source: patent US6696076B2, “Immune response modifier compounds for treatment of TH2 mediated and related diseases” (3M Innovative Properties Company, priority 1996, dated 2004)
